Measured values reported in PubChem BioAssay AID2060602 (Molecular Pharmacology Branch, DTP, NCI, 2025).

System: 648629-189-R-J1-PDC complex spheroids viability
Assay: Anticancer human tumor 648629-189-R-J1-PDC patient-derived bladder carcinoma cell line growth inhibition [CLK]
Conditions: for IC50: curve of first compound; for viability, T/C: stronger effect = lower value; active = viability on the fitted dose curve at most 10% of control; inactive = the rest
Source text: A high-throughput screen of multi-cell type tumor spheroids was designed to identify active combinations of […] and targeted small molecules. Complex spheroids include a stromal component modeled by human endothelial cells (HUVEC) and fibroblasts modeled by human mesenchymal stem cells (MSCs). The concentration ranges selected for each drug and investigational agent were based upon clinically achievable concentrations if the clinical Cmax of the agent was known.
Compounds. The drugs and investigational agents: cirtuvivint (SM08502; NSC835563), CC-671 (NSC850746), vemurafenib (NSC761431), tapotoclax (NSC804041), sotorasib (NSC818433), adagrasib (NSC831453), MRTX-1133 (NSC836407), BAY2416964 (NSC825713), copanlisib (NSC816437), inavolisib (NSC800729), abemaciclib (NSC768073), osimertinib (NSC779217), entinostat (NSC756642), eltanexor (KPT-8602, NSC794443), venetoclax (NSC766270), ceralasertib (NSC777638), bortezomib (NSC756655), olaparib (NSC753686), talazoparib (NSC767125), alisertib (NSC759677), peposertib (NSC802822), gemcitabine (NSC613327), 5-fluorouracil (NSC19893), SN-38 (NSC673596), oxaliplatin (NSC266046), paclitaxel (NSC125973), and doxorubicin (NSC123127), were obtained from the National Cancer Institute (NCI) Developmental Therapeutics Program Chemical Repository. The FDA-approved anticancer drug set is available from the Developmental Therapeutics Program at https://dtp.cancer.gov/organization/dscb/obtaining/available plates.htm. […] The stock solutions were prepared in dimethyl sulfoxide (DMSO, Sigma-Aldrich, St. Louis, MO, cat. D2650), except for the platinum complexes which were prepared in saline (Quality Biological, Gaithersburg, MD, cat. 114-055-101), at 800-fold the tested concentration and stored at -70 degrees C prior to their use. All drugs and investigational agents were tested over a range starting from a high concentration at or near the clinical Cmax and decreasing in half-log increments. If the clinical Cmax for an agent had not been determined, the highest concentration tested was 10 microM.
Cell Culture. All cells were maintained in an incubator at 37 degrees C and 5% CO2 with 95% humidity. The PDC lines were cultured according to standard operating procedures established by the NCI PDMR. Briefly, all PDCs were thawed and cultured in Matrigel-coated flasks prepared with a working solution of 1X Ham's F-12 nutrient mix, without supplementation (Invitrogen, Waltham, MA, cat. 11765054), 100 U/mL penicillin-streptomycin (Invitrogen, cat. 15140122), and 2.5% Matrigel (Corning Inc., Corning, NY, cat. 354248) for the first three passages. The 947758-054-R-J2-PDC line was cultured in 6B/Colon 1A media, which includes advanced DMEM/F-12 (Thermo Fisher Scientific, cat. 12634028), 10 mM HEPES (Thermo Fisher Scientific, cat. 15630080), 1X GlutaMAX supplement (Thermo Fisher Scientific, cat. 35050061), 0.1 mg/mL primocin (InvivoGen, cat. ant-pm-2), 10% defined fetal bovine serum, heat inactivated (HyClone Laboratories Inc., cat. SH30070.03HI), 1.25 mM N-Acetyl-L-cysteine (Sigma-Aldrich, cat. A9165), 10 mM nicotinamide (Sigma-Aldrich, cat. N0636), 1X B-27 supplement (Thermo Fisher Scientific, cat. 17504044), 1X N-2 supplement (Thermo Fisher Scientific, cat. 17502048), and 10 microM Y-27632 dihydrochloride (Tocris Bioscience, cat. 1254). The 876862-298-R-J1-PDC was cultured in 6E media, which includes all 6B/Colon 1A media components plus 50% L-WRN conditioned media (ATCC, cat. CRL-3276), 50 ng/mL recombinant human EGF recombinant protein (hEGF; Thermo Fisher Scientific, cat. PHG0311), 10 ng/mL recombinant human fibroblast growth factor 10 (hGFG-10; PeproTech, cat. 100-26), 1 ng/mL recombinant human fibroblast growth factor 2 (hFGF-2; PeproTech, cat. 100-18B), and 1 µM prostaglandin E2 (PGE2; Tocris, cat. 2296). The 227483-062-R1-J1-PDC line was cultured in Panc media, containing all 6E components except hFGF-2, with the addition of 500 nM SB-431542 (Selleckchem, cat. S1067) and 10 nM gastrin (Tocris, cat. 3006). […]
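For viability, T/C in this document: drug exposure lasted seven days before viability readout; 100% = DMSO vehicle control wells.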

C=CC(=O)Nc1cc(Nc2nccc(-c3cn(C)c4ccccc34)n2)c(OC)cc1N(C)CCN(C)C + CN1CCN(c2cc(C(=O)Nc3cc4cc(-c5cnn(C)c5)ccc4cn3)ccn2)CC1
inactive: viability, T/C (second compound 0.0316 µM, first compound 0.000949 µM) 104% | viability, T/C (second compound 0.0316 µM, first compound 0.003 µM) 109% | viability, T/C (second compound 0.0316 µM, first compound 0.00949 µM) 112% | viability, T/C (second compound 0.0316 µM, first compound 0.03 µM) 115% | viability, T/C (second compound 0.0316 µM, first compound 0.0949 µM) 110% | viability, T/C (second compound 0.0316 µM, first compound 0.3 µM) 91.6% | viability, T/C (second compound 0.1 µM, first compound 0.000949 µM) 104% | viability, T/C (second compound 0.1 µM, first compound 0.003 µM) 117% | viability, T/C (second compound 0.1 µM, first compound 0.00949 µM) 103% | viability, T/C (second compound 0.1 µM, first compound 0.03 µM) 103% | viability, T/C (second compound 0.1 µM, first compound 0.0949 µM) 99.1% | viability, T/C (second compound 0.1 µM, first compound 0.3 µM) 93% | viability, T/C (second compound 0.316 µM, first compound 0.000949 µM) 31.4% | viability, T/C (second compound 0.316 µM, first compound 0.003 µM) 42.5% | viability, T/C (second compound 0.316 µM, first compound 0.00949 µM) 40.7% | viability, T/C (second compound 0.316 µM, first compound 0.03 µM) 35.6% | viability, T/C (second compound 0.316 µM, first compound 0.0949 µM) 33.8% | viability, T/C (second compound 0.316 µM, first compound 0.3 µM) 23.6%
active: viability, T/C (second compound 1 µM, first compound 0.000949 µM) 0.28% | viability, T/C (second compound 1 µM, first compound 0.003 µM) 0.35% | viability, T/C (second compound 1 µM, first compound 0.00949 µM) 1.06% | viability, T/C (second compound 1 µM, first compound 0.03 µM) 0.49% | viability, T/C (second compound 1 µM, first compound 0.0949 µM) 0.24% | viability, T/C (second compound 1 µM, first compound 0.3 µM) 0.19% | viability, T/C (second compound 3.16 µM, first compound 0.000949 µM) 0.13% | viability, T/C (second compound 3.16 µM, first compound 0.003 µM) 0.19% | viability, T/C (second compound 3.16 µM, first compound 0.00949 µM) 0.15% | viability, T/C (second compound 3.16 µM, first compound 0.03 µM) 0.14% | viability, T/C (second compound 3.16 µM, first compound 0.0949 µM) 0.82% | viability, T/C (second compound 3.16 µM, first compound 0.3 µM) 0.77% | viability, T/C (second compound 10 µM, first compound 0.000949 µM) 0.24% | viability, T/C (second compound 10 µM, first compound 0.003 µM) 2.1% | viability, T/C (second compound 10 µM, first compound 0.00949 µM) 0.19% | viability, T/C (second compound 10 µM, first compound 0.03 µM) 0.23% | viability, T/C (second compound 10 µM, first compound 0.0949 µM) 0.24% | viability, T/C (second compound 10 µM, first compound 0.3 µM) 0.21%
> 300 nM: IC50 (second compound 0.0316 µM) | IC50 (second compound 0.1 µM)
< 0.949 nM: IC50 (second compound 0.316 µM) | IC50 (second compound 1 µM) | IC50 (second compound 3.16 µM) | IC50 (second compound 10 µM)

Nc1ccccc1NC(=O)c1ccc(CNC(=O)OCc2cccnc2)cc1 + CN1CCN(c2cc(C(=O)Nc3cc4cc(-c5cnn(C)c5)ccc4cn3)ccn2)CC1
inactive: viability, T/C (second compound 0.0316 µM, first compound 0.0316 µM) 124% | viability, T/C (second compound 0.0316 µM, first compound 0.1 µM) 125% | viability, T/C (second compound 0.0316 µM, first compound 0.316 µM) 96.9% | viability, T/C (second compound 0.0316 µM, first compound 1 µM) 72.2% | viability, T/C (second compound 0.0316 µM, first compound 3.16 µM) 32.5% | viability, T/C (second compound 0.1 µM, first compound 0.0316 µM) 107% | viability, T/C (second compound 0.1 µM, first compound 0.1 µM) 109% | viability, T/C (second compound 0.1 µM, first compound 0.316 µM) 96.9% | viability, T/C (second compound 0.1 µM, first compound 1 µM) 71.7% | viability, T/C (second compound 0.1 µM, first compound 3.16 µM) 31% | viability, T/C (second compound 0.316 µM, first compound 0.0316 µM) 37.4% | viability, T/C (second compound 0.316 µM, first compound 0.1 µM) 46.7% | viability, T/C (second compound 0.316 µM, first compound 0.316 µM) 39.1% | viability, T/C (second compound 0.316 µM, first compound 1 µM) 33.8% | viability, T/C (second compound 0.316 µM, first compound 3.16 µM) 7.95%
< 31.6 nM: IC50 (second compound 0.316 µM) | IC50 (second compound 1 µM) | IC50 (second compound 3.16 µM) | IC50 (second compound 10 µM)
1840 nM: IC50 (second compound 0.1 µM)
active: viability, T/C (second compound 0.0316 µM, first compound 10 µM) 1.56% | viability, T/C (second compound 0.1 µM, first compound 10 µM) 1.87% | viability, T/C (second compound 0.316 µM, first compound 10 µM) 0.08% | viability, T/C (second compound 1 µM, first compound 0.0316 µM) 0.41% | viability, T/C (second compound 1 µM, first compound 0.1 µM) 0.4% | viability, T/C (second compound 1 µM, first compound 0.316 µM) 0.31% | viability, T/C (second compound 1 µM, first compound 1 µM) 0.07% | viability, T/C (second compound 1 µM, first compound 3.16 µM) 0.1% | viability, T/C (second compound 1 µM, first compound 10 µM) 0.53% | viability, T/C (second compound 3.16 µM, first compound 0.0316 µM) 0.08% | viability, T/C (second compound 3.16 µM, first compound 0.1 µM) 1.97% | viability, T/C (second compound 3.16 µM, first compound 0.316 µM) 0.1% | viability, T/C (second compound 3.16 µM, first compound 1 µM) 0.07% | viability, T/C (second compound 3.16 µM, first compound 3.16 µM) 0.07% | viability, T/C (second compound 3.16 µM, first compound 10 µM) 2.02% | viability, T/C (second compound 10 µM, first compound 0.0316 µM) 0.04% | viability, T/C (second compound 10 µM, first compound 0.1 µM) 0.11% | viability, T/C (second compound 10 µM, first compound 0.316 µM) 0.12% | viability, T/C (second compound 10 µM, first compound 1 µM) 0.14% | viability, T/C (second compound 10 µM, first compound 3.16 µM) 2.26% | viability, T/C (second compound 10 µM, first compound 10 µM) 0.17%
1870 nM: IC50 (second compound 0.0316 µM)
